According to article PMC4742234, “Screening of Drug Metabolizing Enzymes for the Ginsenoside Compound K In Vitro: An Efficient Anti-Cancer Substance Originating from Panax Ginseng” (PLoS ONE, 2016):

Experiments:
CYP3A4 = tested on: CYP3A4; design: method as in Hao et al.(2008); settings: baculosomes, ref Hao et al.(2008); cited from earlier work
[1] = substrate: CC(C)=CCC[C@](C)(OC1O[C@H](CO)[C@@H](O)[C@H](O)[C@H]1O)[C@H]1CC[C@]2(C)[C@@H]1[C@H](O)C[C@@H]1[C@@]3(C)CC[C@H](O)C(C)(C)[C@@H]3CC[C@]12C; assay: Kinetic analysis of CK metabolism by recombinant CYP2C9; type: in vitro ADME, human; settings: other: recombinant CYP2C9 10 pmol, CK 10–100 μM; pH 7.4; 37.0 °C
Protocol: The method was conducted according to our previous study with some modifications. The CYP isoform-specific probe reactions used were phenacetin O-deethylation (for CYP1A2), coumarin 7-hydroxylation (for CYP2A6), tolbutamide 4-hydroxylation (for CYP2C9), metoprolol α-hydroxylation (for CYP2D6), chlorzoxazone 6-hydroxylation (for CYP2E1),S-Mephenytoin 4-hydroxylation (for CYP2C19), and midazolam 1-hydroxylation (for CYP3A4). The kinetic study of CK was conducted with HLMs. A 0.2 mL incubation mixture that consisted of CK (as a substrate), the HLMs (0.5 mg/mL) or CYP isoforms (10 pmol), and 0.1 M sodium phosphate buffer (pH 7.4) was pre-warmed for 5 min at 37°C. The reaction was initiated by the addition of 1 mg/mL triphosphopyridine nucleotide (NADPH). […]
The kinetic parameters for the metabolism of CK were determined by incubating increasing concentrations of CK (10–100 μM) at 37°C with the HLMs and NADPH under the incubation conditions as described in detail previously. The equation of CK reaction velocity (V) in the HLMs or CYP isoforms is expressed as V = (C0–Ct)/T/Cp, where C0and Ct are the initial and final concentrations of CK in the incubation solution, respectively, T is the incubation time (min), and Cp is the protein concentration (mg/mL or nmol). All values were expressed as the mean±standard deviation (SD). […]

| Molecule | CYP3A4 inhibition (CYP3A4) | Km [1] |
| --- | --- | --- |
| CC(C)=CCC[C@](C)(O)[C@H]1CC[C@]2(C)[C@@H]1[C@H](O)C[C@@H]1[C@@]3(C)CC[C@H](O[C@@H]4O[C@H](CO)[C@@H](O)[C@H](O)[C@H]4O)C(C)(C)[C@@H]3CC[C@]12C [Rh2, reference compound] | moderate | – |
| recombinant CYP2C9 (Homo sapiens) (protein, purchased Cypex Ltd. (U.K.)) MDSLVVLVLCLSCLLLLSLWRQSSGRGKLPPGPTPLPVIGNILQIGIKDISKSLTNLSKVYGPVFTLYFGLKPIVVLHGYEAVKEALIDLGEEFSGRGIFPLAERANRGFGIVFSNGKKWKEIRRFSLMTLRNFGMGKRSIEDRVQEEARCLVEELRKTKASPCDPTFILGCAPCNVICSIIFHKRFDYKDQQFLNLMEKLNENIKILSSPWIQICNNFSPIIDYFPGTHNKLLKNVAFMKSYILEKVKEHQESMDMNNPQDFIDCFLMKMEKEKHNQPSEFTIESLENTAVDLFGAGTETTSTTLRYALLLLLKHPEVTAKVQEEIERVIGRNRSPCMQDRSHMPYTDAVVHEVQRYIDLLPTSLPHAVTCDIKFRNYLIPKGTTILISLTSVLHDNKEFPNPEMFDPHHFLDEGGNFKKSKYFMPFSAGKRICVGEALAGMELFLFLTSILQNFNLKSLVDPKNLDTTPVVNGFASVPPFYQLCFIPV | – | 34.63 ± 10.48 µM |
